Laboratory results from US8883512B1, “Method for diagnosing gestational diabetes, preeclampsia, and fetal growth restriction” (priority 2011, dated 2014).
“Also recorded” adds a separate entry of the source.

Experiments:
[1] = better designed (low bias) trials of antioxidant supplements; cited from earlier work
[2] = system: pregnant Sprague-Dawley rats; assay: RAR-alpha antagonist Ro41-5253 in the STZ (75 mg/kg) model of gestational diabetes; assay type: in vivo, rat
Experimental: (§1) The specific aims of this second experiment were to test the hypothesis that complications associated with GDM could be ameliorated with the retinoic acid receptor-alpha (RAR-alpha) antagonist, Ro41-5253. On day 6 of gestation, Sprague-Dawley rats were randomly assigned to one of five groups: 1) saline-infused controls; 2) STZ, 75 mg/kg I.P.; 3) STZ, 50 mg/kg I.P.; 4) STZ, 75+Ro41-5253 (0.5 mg/kg I.P. daily for 10 d); or 5) STZ, 75+Ro41-5253 (1.0 mg/kg I.P. daily for 10 days). Ro41-5253 was provided as a gift from Roche. On day 19, after carotid artery catheters were implanted for measurement of arterial pressure, the animals were sacrificed, fetal and placental weights were determined, and blood samples were obtained to measure liver enzymes and glucose.

[3] = system: pregnant Sprague-Dawley rats; assay: Streptozotocin (STZ) animal model of gestational diabetes and preeclampsia: blood glucose, liver enzymes, arterial pressure, fetal and placental weights; assay type: in vivo, rat
Experimental: Pregnant Sprague-Dawley rats on day 6 of gestation were randomly assigned to STZ at 75 mg/kg I.P. or saline-infusion. On day 19, carotid artery catheters were implanted for measurement of arterial pressure, after which the animals were sacrificed, fetal and placental weights determined and blood samples obtained to measure liver enzymes and glucose. Subsequently, using the same procedure, a separate group of pregnant rats (n=10/group) was randomly assigned to receive STZ at 75 mg/kg I.P. or saline infusion. Serum concentrations of retinol, retinoic acid, and retinyl esters were determined in these animals by HPLC on Day 20. Retinoid toxicity was defined as the percentage of retinyl esters >10%.
as §1

[4] = STZ 75 mg/kg, I.P. Ro41-5253, listed as retinoid receptor antagonist

In the case of vitamin A, the “increased risk of mortality” value [1] is listed as 16%.

For `CCCCCCCOc1cc2c(cc1/C(C)=C/c1ccc(C(=O)O)cc1)C(C)(C)CCS2(=O)=O` [Ro41-5253], the “effect on blood glucose following STZ” value ([2]; Ro41-5253 0.5 mg/kg I.P. daily for 10 d, STZ 75 mg/kg) was “not by the lower dose; also recorded: no effect”, the “effect on blood glucose following STZ” value ([2]; Ro41-5253 1.0 mg/kg I.P. daily for 10 days, STZ 75 mg/kg) was “reduced; also recorded: decrease of approximately one-third” and the “reduction of alkaline phosphatase levels induced by STZ” value ([2]; STZ 75 mg/kg, FIG. 3) was “about 20%”. For the same compound, the “effect on alanine aminotransferase (ALT) elevation following STZ” value ([2]; STZ 75 mg/kg, I.P. Ro41-5253) was “markedly reduced (almost to control levels)”, the “effect on aspartate aminotransferase (AST) elevation following STZ” value ([2]; STZ 75 mg/kg, I.P. Ro41-5253) was “markedly reduced (almost to control levels)” and the “effect on alkaline phosphatase (AP) levels induced by STZ” value ([2]; STZ 75 mg/kg, I.P. Ro41-5253, listed as RAR-alpha antagonist) was “increased alkaline phosphatase levels in all animals, with or without”. For the same compound, the “effect on alanine aminotransferase (ALT) elevation following STZ” value [2, 4] was “markedly reduced”, the “effect on aspartate aminotransferase (AST) elevation following STZ” value [2, 4] was “markedly reduced” and the placental weights ([2]; STZ model, day 19) was “unaffected”. The “effect on trend towards increased arterial pressure” value ([2]; higher dose of STZ, doses investigated) was “did not appear to be ameliorated”.

For `CN(N=O)C(=O)N[C@H]1C(O)O[C@H](CO)[C@@H](O)[C@@H]1O` (mixture of isomers) [STZ, streptozotocin], the “blood glucose levels (mean)” value ([3]; STZ 75 mg/kg I.P. on gestation day 6, blood on day 19, saline controls 104) was 533 mg/dL, the “pup weights (mean)” value ([3]; STZ 75 mg/kg I.P., controls 4.6) was 1.4 g and the “alanine aminotransferase (mean)” value ([3]; STZ 75 mg/kg I.P., controls 63) was 326 U/L. For the same compound, the “alkaline phosphatase (mean)” value ([3]; STZ 75 mg/kg I.P., controls 123) was 576 U/L, the “asparate aminotransferase levels (mean)” value ([3]; STZ 75 mg/kg I.P., controls 152) was 842 U/L and the placental weights ([3]; STZ, day 19) was “unaffected”. For the same compound, the “fetus size versus controls” value ([3]; groups receiving 75 mg/kg of STZ alone) was “smaller than controls” and the arterial pressure ([3]; groups receiving both doses of STZ, P=0.1386) was “non-significant trend towards increased levels”.

For vitamin E, the “increased risk of mortality” value [1] is listed as 4%.

In the case of `CC1=C(/C=C/C(C)=C/C=C/C(C)=C/C=C/C=C(C)/C=C/C=C(C)/C=C/C2=C(C)CCCC2(C)C)C(C)(C)CCC1` [beta-carotene], the “increased risk of mortality” value [1] is listed as 7%.
